Measurements taken from ChEMBL document CHEMBL3734751, “Discovery of novel, potent and low-toxicity angiotensin II receptor type 1 (AT1) blockers: Design, synthesis and biological evaluation of 6-substituted aminocarbonyl benzimidazoles with a chiral center” (Eur J Med Chem, 2015).
Substitutions are numbered along the chain they refer to. pIC50: −log10 of the molar value. Activity calls are given as the source filed them. No cut-off for these calls is given here.

What was measured:
[1] = Cmax in Sprague-Dawley rat at 30 mg/kg, po by LC-MS/MS; type: ADME, organism-based; design: dose 30 mg/kg, route oral; conditions: in vivo
Mus musculus [2] = assay: Hepatotoxicity in Kunming mouse assessed as serum ALT level at 0.5 g/kg by automatic biochemical analyser (reference value: 44.33 +/- 6.50 U/T); type: toxicity, organism-based; conditions: in vivo, 500 mg/kg
[3] = Volume of distribution at steady state in Sprague-Dawley rat at 3 mg/kg, iv by LC-MS/MS; type: ADME, organism-based; conditions: in vivo, read-out: Vdss
[4] = Toxicity in Kunming mouse at 3 g/kg, po assessed as mortality after 2 weeks; type: organism-based; conditions: in vivo, 3000 mg/kg
[5] = Toxicity in Kunming mouse at 2 g/kg, po assessed as mortality after 2 weeks; type: organism-based; conditions: in vivo, 2000 mg/kg
Rattus norvegicus [6] = assay: Antihypertensive activity in spontaneously hypertensive rat model assessed as decrease in heart rate at 30 mg/kg, po administered daily for 14 days and measured after 2 days of drug withdrawal by tail-cuff plethysmography; type: functional, organism-based
[7] = Toxicity in Kunming mouse at 4 g/kg, po assessed as mortality after 2 weeks; type: organism-based; conditions: in vivo, 4000 mg/kg
Mus musculus [8] = assay: Renal toxicity in Kunming mouse assessed as serum creatinin level at 0.5 g/kg by automatic biochemical analyser (reference value: 13.78 +/- 2.64 umol/L); type: organism-based; conditions: in vivo, 500 mg/kg
[9] = Mutagenicity in Kunming mouse bone marrow cells assessed as ratio of polychromatic erythrocyte level to norchromatic erythrocyte level at 0.5 g/kg by May-Grunwald-Giemsa staining-based microscopic analysis (reference value: 1.32 +/- 0.22 ); type: toxicity, cell-based, Bone marrow cell; conditions: in vivo, 500 mg/kg
[10] = Oral bioavailability in Sprague-Dawley rat at 30 mg/kg, by LC-MS/MS; type: ADME, organism-based; conditions: in vivo
[11] = target: T1, Type-1 angiotensin II receptor (Oryctolagus cuniculus, UniProt P34976); assay: Antagonist activity against AT1 receptor in Japanese White rabbit aortic strips assessed as reduction in angiotension-2-induced contractile response after 60 mins by Schild's plot analysis; conditions: read-out: pA2 (converted)
T1 sequence (P34976 whole entry): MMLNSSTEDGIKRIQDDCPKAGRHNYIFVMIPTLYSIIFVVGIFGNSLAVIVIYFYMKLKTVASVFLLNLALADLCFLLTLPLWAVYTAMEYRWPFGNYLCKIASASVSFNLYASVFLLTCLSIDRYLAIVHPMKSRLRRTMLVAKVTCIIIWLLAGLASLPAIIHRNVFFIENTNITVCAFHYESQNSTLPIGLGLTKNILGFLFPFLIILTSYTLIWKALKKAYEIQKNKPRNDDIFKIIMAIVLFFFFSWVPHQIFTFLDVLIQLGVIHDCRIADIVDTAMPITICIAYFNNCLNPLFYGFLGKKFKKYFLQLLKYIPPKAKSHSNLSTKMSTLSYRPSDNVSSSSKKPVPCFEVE

[12] = Mutagenicity in Kunming mouse bone marrow cells assessed as micronucleated polychromatic erythrocytes level at 1 g/kg by May-Grunwald-Giemsa staining-based microscopic analysis (reference value: 3.2 +/- 1.62 ); type: toxicity, cell-based, Bone marrow cell; conditions: in vivo, 1000 mg/kg
[13] = Tmax in Sprague-Dawley rat at 30 mg/kg, po by LC-MS/MS; type: ADME, organism-based; conditions: in vivo
[14] = Toxicity in orally dosed Kunming mouse assessed as mortality after 2 weeks; type: organism-based; conditions: in vivo, po
Rattus norvegicus [15] = assay: AUC in Sprague-Dawley rat at 3 mg/kg, iv by LC-MS/MS; type: ADME, organism-based; conditions: in vivo
Mus musculus [16] = assay: Renal toxicity in Kunming mouse assessed as serum creatinin level at 2 g/kg by automatic biochemical analyser (reference value: 13.78 +/- 2.64 umol/L); type: organism-based; conditions: in vivo, 2000 mg/kg
Mus musculus [17] = assay: Hepatotoxicity in Kunming mouse assessed as serum AST level at 2 g/kg by automatic biochemical analyser (reference value: 133.44 +/- […] U/T); type: toxicity, organism-based; conditions: in vivo, 2000 mg/kg
[18] = target: T2, Type-1 angiotensin II receptor (Homo sapiens, UniProt P30556); assay: Displacement of [125I]Sar1Ile8-Ang2 from human AT1 receptor expressed in CHO-K1 cell membranes after 180 mins
T2 sequence (P30556 whole entry): T1 sequence (P34976 whole entry) with M2I, A49V, V254I, V270I, H272R, K311R, S349T, V353A

[19] = Terminal half-life in Sprague-Dawley rat at 30 mg/kg, po by LC-MS/MS; type: ADME, organism-based; conditions: in vivo, read-out: beta t1/2 (converted)
[20] = Mutagenicity in Kunming mouse bone marrow cells assessed as micronucleated polychromatic erythrocytes level at 2 g/kg by May-Grunwald-Giemsan staining-based microscopic analysis (reference value: 3.2 +/- 1.62 ); type: toxicity, cell-based, Bone marrow cell; conditions: in vivo, 2000 mg/kg
Mus musculus [21] = assay: Renal toxicity in Kunming mouse assessed as serum urea level at 1 g/kg by automatic biochemical analyser (reference value: 9.95 +/- 1.39 mmol); type: organism-based; conditions: in vivo, 1000 mg/kg
Mus musculus [22] = assay: Renal toxicity in Kunming mouse assessed as serum urea level at 2 g/kg by automatic biochemical analyser (reference value: 9.95 +/- 1.39 mmol); type: organism-based; conditions: in vivo, 2000 mg/kg
Rattus norvegicus [23] = assay: Antihypertensive activity in spontaneously hypertensive rat model assessed as decrease in heart rate at 30 mg/kg, po administered daily for 14 days by tail-cuff plethysmography; type: functional, organism-based
[24] = Mutagenicity in Kunming mouse bone marrow cells assessed as ratio of polychromatic erythrocyte level to norchromatic erythrocyte level at 2 g/kg by May-Grunwald-Giemsa staining-based microscopic analysis (reference value: 1.32 +/- 0.22 ); type: toxicity, cell-based, Bone marrow cell; conditions: in vivo, 2000 mg/kg
Mus musculus [25] = assay: Hepatotoxicity in Kunming mouse assessed as serum ALT level at 1 g/kg by automatic biochemical analyser (reference value: 44.33 +/- 6.50 U/T); type: toxicity, organism-based; conditions: in vivo, 1000 mg/kg
Rattus norvegicus [26] = assay: Antihypertensive activity in spontaneously hypertensive rat model assessed as decrease in systolic and diastolic blood pressure at 30 mg/kg, po administered daily for 14 days by tail-cuff plethysmography; type: functional, organism-based
Mus musculus [27] = assay: Hepatotoxicity in Kunming mouse assessed as serum AST level at 1 g/kg by automatic biochemical analyser (reference value: 133.44 +/- 25.05 U/T); type: toxicity, organism-based; conditions: in vivo, 1000 mg/kg
Rattus norvegicus [28] = assay: Antihypertensive activity in po dosed spontaneously hypertensive rat assessed as decrease in mean blood pressure by tail-cuff plethysmography; type: functional, organism-based
Mus musculus [29] = assay: Renal toxicity in Kunming mouse assessed as serum creatinin level at 1 g/kg by automatic biochemical analyser (reference value: 13.78 +/- 2.64 umol/L); type: organism-based; conditions: in vivo, 1000 mg/kg
Mus musculus [30] = assay: Hepatotoxicity in Kunming mouse assessed as serum ALT level at 2 g/kg by automatic biochemical analyser (reference value: 44.33 +/- 6.50 U/T); type: toxicity, organism-based; conditions: in vivo, 2000 mg/kg
Mus musculus [31] = assay: Renal toxicity in Kunming mouse assessed as serum urea level at 0.5 g/kg by automatic biochemical analyser (reference value: 9.95 +/- 1.39 mmol); type: organism-based; conditions: in vivo, 500 mg/kg
[32] = Terminal half-life in Sprague-Dawley rat at 3 mg/kg, iv by LC-MS/MS; type: ADME, organism-based; conditions: in vivo, read-out: beta t1/2 (converted)
Mus musculus [33] = assay: Hepatotoxicity in Kunming mouse assessed as serum AST level at 0.5 g/kg by automatic biochemical analyser (reference value: 133.44 +/- 25.05 U/T); type: toxicity, organism-based; conditions: in vivo, 500 mg/kg
[34] = Mutagenicity in Kunming mouse bone marrow cells assessed as micronucleated polychromatic erythrocytes level at 0.5 g/kg by May-Grunwald-Giemsa staining-based microscopic analysis (reference value: 3.2 +/- 1.62 ); type: toxicity, cell-based, Bone marrow cell; conditions: in vivo, 500 mg/kg
[35] = Mutagenicity in Kunming mouse bone marrow cells assessed as ratio of polychromatic erythrocyte level to norchromatic erythrocyte level at 1 g/kg by May-Grunwald-Giemsa staining-based microscopic analysis (reference value: 1.32 +/- 0.22 ); type: toxicity, cell-based, Bone marrow cell; conditions: in vivo, 1000 mg/kg
[36] = AUC in Sprague-Dawley rat at 30 mg/kg, po by LC-MS/MS; type: ADME, organism-based; conditions: in vivo
Rattus norvegicus [37] = assay: Antihypertensive activity in spontaneously hypertensive rat model assessed as decrease in systolic and diastolic blood pressure at 30 mg/kg, po administered daily for 14 days and measured after 2 days of drug withdrawal by tail-cuff plethysmography; type: functional, organism-based
[38] = Toxicity in Kunming mouse at 5 g/kg, po assessed as mortality after 2 weeks; type: organism-based; conditions: in vivo, 5000 mg/kg

## CCCc1nc2c(C)cc(C(=O)NC[C@H](C)c3ccccc3)cc2n1Cc1ccc(-c2ccccc2-c2nnn[nH]2)cc1
[1]
  Cmax: 14600 ng/mL
Mus musculus [2]
  Activity: 42.7 U/L
[3]
  Vd: 11 L/kg
[4]
  mortality at 336 h: 30%
[5]
  mortality at 336 h: 0%
Rattus norvegicus [6]
  Activity: Active
[7]
  mortality at 336 h: 50%
Mus musculus [8]
  Activity: 10.3 µmol/L
[9]
  Ratio: 1.34
[10]
  bioavailability: 42%
[11]
  Kb: 1.78 nM
[12]
  Activity: 3.8
[13]
  Tmax: 0.75 h
[14]
  LD50 at 336 h: 3640 mg/kg
Rattus norvegicus [15]
  AUC: 12200 ng·h/mL
Mus musculus [16]
  Activity: 6.14 µmol/L
Mus musculus [17]
  Activity: 217 U/L
[18]
  pIC50: 8.96
[19]
  half-life: 13 h
[20]
  Activity: 4.3
Mus musculus [21]
  Activity: 10 mM
Mus musculus [22]
  Activity: 11.2 mM
Rattus norvegicus [23]
  Activity: Active
[24]
  Ratio: 1.64
Mus musculus [25]
  Activity: 52.6 U/L
Rattus norvegicus [26]
  Activity: Active
Mus musculus [27]
  Activity: 141 U/L
Rattus norvegicus [28]
  Activity: Dose-dependent effect
Mus musculus [29]
  Activity: 8.3 µmol/L
Mus musculus [30]
  Activity: 91.4 U/L
Mus musculus [31]
  Activity: 8.71 mM
[32]
  half-life: 12.6 h
Mus musculus [33]
  Activity: 126 U/L
[34]
  Activity: 3
[35]
  Ratio: 1.28
[36]
  AUC: 51500 ng·h/mL
Rattus norvegicus [37]
  Activity: Active
[38]
  mortality at 336 h: 90%
